Series [1] has as its target T1, HIV-1 RT-associated RNase H (Human immunodeficiency virus type 1 group M subtype B, UniProt P03366).
T1 construct: His-tagged p66/p51 HIV-1 RT group M subtype B; His tag; made in house; host or cells: Escherichia coli strain M15 (plasmid p6HRT-prot)
Kind of series: RNase H polymerase-independent cleavage assay. It counts as biochemical. The settings on record: for IC50: IC50, compound concentration required to reduce HIV-1 RT-associated RNase H activity by 50%; for remaining activity at 100 µM: read-out: Percentage of the control activity measured at the indicated compound concentration. The method, then:
The Ar^1 and Ar^2 aromatic segments of the molecule also approach the protein surface, through hydrophobic interactions. These findings provide important information for further structural optimization. All these newly designed thiazolone[3,2-a]pyrimidine derivatives were evaluated for their inhibitory activity against HIV RT-associated RNase H, using the diketo acid RDS1643 as positive control. […] The decrease in activity observed in compounds containing a sulfonic acid group might be attributed to the excessively strong acidity of the sulfonic acid group, which could protonate the diazo group within the molecule. […] When Ar^2 was changed from a phenyl group to a naphthyl group, the activity of compound 10f gained a great improvement over that of compound 10k. […] And when a negatively charged polar group was present at the 2-position of Ar^2, the inhibitory activity is enhanced. […]
3. Biology Experimental section
3.1 Expression and purification of recombinant HIV-1 RTs.
His-tagged p66/p51 HIV-1 RT group M subtype B coded in a p6HRT-prot plasmid was expressed in the Escherichia coli strain M15.1 Heterodimeric RTs were expressed essentially and purified as described.2 E. coli cells harboring the expression vector were cultured until reaching an optical density at 600 nm of 0.7. Induction of protein expression was achieved by treating the cells with 1.7 mM isopropyl β-D-1-thiogalactopyranoside (IPTG) for a duration of 4 hours. The subsequent purification of the protein was performed using a BioLogic LP system (BioRad) employing a combination of immobilized metal affinity chromatography and ion exchange […]
To initiate the purification process, the cell pellets were resuspended in lysis buffer at a ratio of 1:2 (cell pellet volume: lysis buffer volume). The lysis buffer used consisted of 50 mM sodium phosphate buffer with a pH of 7.8, supplemented with 0.5 mg/ml lysozyme. The resuspended cells were incubated on ice for 20 minutes. Following this, NaCl was added to achieve a final concentration of 0.3 M. The cells were then subjected to sonication, with four cycles of 60 seconds each, alternating between one second on and one second off. Subsequently, the cell lysate was centrifuged at 30, 000×g for 1 […]
The supernatant obtained from the centrifugation step was loaded onto a Ni2+-NTA-Sepharose column that had been pre-equilibrated with a loading buffer consisting of 50 mM sodium phosphate buffer (pH 7.8), 0.3 M NaCl, 10% glycerol, and 10 mM imidazole. The column was washed with a buffer containing 50 mM sodium phosphate buffer (pH 6.0), 0.3 M NaCl, 10% glycerol, and 80 mM imidazole. The target protein, RT, was eluted using an imidazole gradient ranging from 0.08 M to 0.5 M in the wash buffer. Fractions containing the enzyme were collected and combined, and then diluted 1:1 with 50 mM sodium phosphate buffer (pH 7.0) containing 10% glycerol. The diluted protein sample was loaded onto a Hi-trap heparin HP column that had been pre-equilibrated with 10 column volumes of a loading buffer consisting of 50 mM sodium phosphate buffer (pH 7.0), 10% glycerol, and 150 mM NaCl. The column was washed with the loading buffer, and the RT enzyme was eluted using Elute Buffer 2, which
(1 picture or pasted object on this page, not shown here) […]
comprised 50 mM sodium phosphate buffer (pH 7.0), 10% glycerol, and 1 M NaCl.
The eluted fractions containing the purified protein were collected, and the protein was subsequently dialyzed and stored in a buffer composed of 50 mM Tris-HCl (pH 7.0), 25 mM NaCl, 1 mM EDTA, and 50% glycerol. The catalytic activities of the purified protein samples were determined, and aliquots were stored at -80 °C for further use.
3.2 RNase H Polymerase-Independent Cleavage Assay
The HIV-1 RT-associated RNase H activity was measured as described.3 In summary, the reaction was performed in a black 96-well plate with a total volume of 100 μL. The reaction mix consisted of 50 mM Tris HCl (pH 7.8), 6 mM MgCl2, 1 mM dithiothreitol […]

Setting [2] is: recombinant HIV-1 wt RT, hybrid RNA/DNA substrate, 37 °C, 1 hour.

Experimental findings from PMC11085872, “Structure-Based Design of Novel Thiazolone[3,2-a]pyrimidine Derivatives as Potent RNase H Inhibitors for HIV Therapy” (Molecules, 2024) are described below.

Each structure is given as a SMILES string.

As usually defined, the IC50 is the concentration that gives 50% inhibition. The melting point is the temperature, or range, at which the solid turns liquid. Turning to `COC(=O)C1=C(C)N=C2SC(=NNc3ccccc3C(=O)OC)C(=O)N2C1c1ccc(OC)cc1` (stereo not shown) [Compound 12b, Methyl 2-(2-(2-(methoxycarbonyl)phenyl)hydrazineylidene)-5-(4-methoxyphenyl)-7-methyl-3-oxo-2,3-dihydro-5H-thiazolo[3,2-a]pyrimidine-6-carboxylate], the melting point lay within 219 to 221 °C. Also, the IC50 in series [1] (setting [2]) was 2.97 ± 0.88 µM.
On the same counts, the results for `COC(=O)C1=C(C)N=C2SC(=NNc3cccc(C(C)=O)c3)C(=O)N2C1c1ccccc1` (stereo not shown) [Compound 10m, Methyl 2-(2-(3-acetylphenyl)hydrazineylidene)-7-methyl-3-oxo-5-phenyl-2,3-dihydro-5H-thiazolo[3,2-a]pyrimidine-6-carboxylate] are 213 to 216 °C and 18.4 ± 0.79 µM.
On the same counts, the results for `COC(=O)C1=C(C)N=C2SC(=NNc3ccc(OC)c(OC)c3)C(=O)N2C1c1ccccc1` (stereo not shown) [Compound 10h, Methyl 2-(2-(3,4-dimethoxyphenyl)hydrazineylidene)-7-methyl-3-oxo-5-phenyl-2,3-dihydro-5H-thiazolo[3,2-a]pyrimidine-6-carboxylate] are 204 to 206 °C and 14.4 ± 1.23 µM.
Regarding `COC(=O)C1=C(C)N=C2SC(=NNc3ccccc3O)C(=O)N2C1c1ccccc1` (stereo not shown) [Compound 10a, Methyl 2-(2-(2-hydroxyphenyl)hydrazineylidene)-7-methyl-3-oxo-5-phenyl-2,3-dihydro-5H-thiazolo[3,2-a]pyrimidine-6-carboxylate], the melting point is 227 to 229 °C. Besides, the IC50 in series [1] (setting [2]) is 18.2 ± 0.85 µM.
The matching figures for `COC(=O)C1=C(C)N=C2SC(=NNc3cccc(C(=O)OC)c3)C(=O)N2C1c1ccc(OC)c(OC)c1OC` (stereo not shown) [Compound 11j, Methyl 2-(2-(3-(methoxycarbonyl)phenyl)hydrazineylidene)-7-methyl-3-oxo-5-(2,3,4-trimethoxyphenyl)-2,3-dihydro-5H-thiazolo[3,2-a]pyrimidine-6-carboxylate]: 213 to 215 °C and 42.1 ± 9.78 µM.
On to `COC(=O)C1=C(C)N=C2SC(=NNc3ccccc3C(=O)OC)C(=O)N2C1c1ccc(OC)c(OC)c1OC` (stereo not shown) [Compound 11h, Methyl 2-(2-(2-(methoxycarbonyl)phenyl)hydrazineylidene)-7-methyl-3-oxo-5-(2,3,4-trimethoxyphenyl)-2,3-dihydro-5H-thiazolo[3,2-a]pyrimidine-6-carboxylate], for which the melting point lay in the range of 200 to 202 °C. Further, the IC50 in series [1] (setting [2]) stood at 10 ± 0.95 µM.
`COC(=O)C1=C(C)N=C2SC(=NNc3ccccc3S(=O)(=O)O)C(=O)N2C1c1ccc(OC)c(OC)c1OC` (stereo not shown) [Compound 11e, 2-(2-(6-(Methoxycarbonyl)-7-methyl-3-oxo-5-(2,3,4-trimethoxyphenyl)-5H-thiazolo[3,2-a]pyrimidin-2(3H)-ylidene)hydrazineyl)benzenesulfonic acid] came in with a melting point of 238 to 240 °C. The IC50 in series [1] (setting [2]) is above 100 µM. Further, the remaining activity at 100 µM in series [1] came to 97%.
`COC(=O)C1=C(C)N=C2S/C(=N\Nc3ccc4ccccc4c3S(=O)(=O)O)C(=O)N2C1c1ccccc1` (stereo not shown) [Compound 10f] registered a melting point of 289 to 293 °C. Further, in series [1] (setting [2]), the half-inhibitory concentration (IC50) is 7.04 ± 0.57 µM.
Compound `COC(=O)C1=C(C)N=C2SC(=NNc3ccccc3C(C)=O)C(=O)N2C1c1ccc(OC)c(OC)c1OC` (stereo not shown) [Compound 11i, Methyl 2-(2-(2-acetylphenyl)hydrazineylidene)-7-methyl-3-oxo-5-(2,3,4-trimethoxyphenyl)-2,3-dihydro-5H-thiazolo[3,2-a]pyrimidine-6-carboxylate] yielded a melting point of 205 to 208 °C. The IC50 in series [1] (setting [2]) is above 100 µM. Also, in series [1], the remaining activity at 100 µM came to 100%.
In turn, `COC(=O)C1=C(C)N=C2SC(=NNc3cccc(C(=O)OC)c3)C(=O)N2C1c1ccccc1` (stereo not shown) [Compound 10n, Methyl 2-(2-(3-(methoxycarbonyl)phenyl)hydrazineylidene)-7-methyl-3-oxo-5-phenyl-2,3-dihydro-5H-thiazolo[3,2-a]pyrimidine-6-carboxylate] gave a melting point of 214 to 216 °C. Also, the IC50 in series [1] (setting [2]) came to 7.03 ± 0.17 µM.
On the same counts, the results for `COC(=O)C1=C(C)N=C2SC(=NNc3ccccc3OC)C(=O)N2C1c1ccccc1` (stereo not shown) [Compound 10i, Methyl 2-(2-(2-methoxyphenyl)hydrazineylidene)-7-methyl-3-oxo-5-phenyl-2,3-dihydro-5H-thiazolo[3,2-a]pyrimidine-6-carboxylate] are 189 to 192 °C and 8.32 ± 0.06 µM.
Consider `COC(=O)C1=C(C)N=C2SC(=NNc3cccc([N+](=O)[O-])c3)C(=O)N2C1c1ccccc1` (stereo not shown) [Compound 10l, Methyl 7-methyl-2-(2-(3-nitrophenyl)hydrazineylidene)-3-oxo-5-phenyl-2,3-dihydro-5H-thiazolo[3,2-a]pyrimidine-6-carboxylate], for which the melting point lay in the range of 250 to 252 °C. Further, the IC50 in series [1] (setting [2]) was found to be 6.41 ± 0.24 µM.
On the same counts, the results for `COC(=O)C1=C(C)N=C2S/C(=N\Nc3ccccc3C(=O)OC)C(=O)N2C1c1ccccc1` (stereo not shown) [Compound 10d, Methyl 2-((2-(methoxycarbonyl)phenyl)diazenyl)-7-methyl-3-oxo-5-phenyl-2,3-dihydro-5H-thiazolo[3,2-a]pyrimidine-6-carboxylate] are 184 to 186 °C and 8.27 ± 0.39 µM.
The matching figures for `COC(=O)C1=C(C)N=C2SC(=NNc3ccc(OC)cc3S(=O)(=O)O)C(=O)N2C1c1ccccc1` (stereo not shown) [Compound 10e, 5-Methoxy-2-(2-(6-(methoxycarbonyl)-7-methyl-3-oxo-5-phenyl-5H-thiazolo[3,2-a]pyrimidin-2(3H)-ylidene)hydrazineyl)benzenesulfonic acid]: 247 to 249 °C and 58.4 ± 1.71 µM.
On the same counts, the results for `COC(=O)C1=C(C)N=C2SC(=NNc3ccccc3)C(=O)N2C1c1ccccc1` (stereo not shown) [Compound 10j, Methyl 7-methyl-3-oxo-5-phenyl-2-(2-phenylhydrazineylidene)-2,3-dihydro-5H-thiazolo[3,2-a]pyrimidine-6-carboxylate] are 124 to 127 °C and 21.45 ± 0.1 µM.
The compound `COC(=O)C1=C(C)N=C2SC(=NNc3ccc(OC)cc3S(=O)(=O)O)C(=O)N2C1c1ccc(OC)c(OC)c1OC` (stereo not shown) [Compound 11f, 5-Methoxy-2-(2-(6-(methoxycarbonyl)-7-methyl-3-oxo-5-(2,3,4-trimethoxyphenyl)-5H-thiazolo[3,2-a]pyrimidin-2(3H)-ylidene)hydrazineyl)benzenesulfonic acid] displayed a melting point of 244 to 246 °C. In addition, the IC50 in series [1] (setting [2]) was above 100 µM. Also, the remaining activity at 100 µM in series [1] was found to be 61%.
In the case of `COC(=O)C1=C(C)N=C2S/C(=N\Nc3ccc4ccccc4c3S(=O)(=O)O)C(=O)N2C1c1ccc(OC)c(OC)c1OC` (stereo not shown) [Compound 11g, (2-(6-(Methoxycarbonyl)-7-methyl-3-oxo-5-(2,3,4-trimethoxyphenyl)-5H-thiazolo[3,2-a]pyrimidin-2(3H)-ylidene)hydrazineyl)naphthalene-1-sulfonic acid], the melting point lay within 241 to 244 °C.
Regarding `CCOC(=O)C(=O)CC(=O)/C=C/c1cccn1Cc1ccc(F)cc1` [RDS1643, reference compound], the “IC50, compound concentration required to reduce HIV-1 RT-associated RNase H activity by 50%” value in series [1] (setting [2]) was determined as 8.6 ± 1.30 µM.
